Data as given in patent publication US20100069345A1, “Lanthanide-porphyrin complexes as anti-tumor agents” (priority 2005, published 2010).

Tests used:
calf thymus DNA = assay: Absorption titration with calf thymus DNA; format: binding; conditions: Tris buffer
Experimental: The calf thymus DNA was purchased from Sigma-Aldrich Chemical Co. and was purified by phenol-chloroform extraction. The DNA was dissolved in buffer (5 mM Tris, 5 mM NaCl, pH 7.2). The concentration (per base pair) or calf thymus DNA was determined spectophotometrically on the basic of ε260, 13200 M^−1cm^−1bp.
Absorption Titration. Studying the interaction between drugs and DNA is imperative to pharmaceutical chemistry. Since complexation between a ligand molecule and a nucleic acid leads to optical changes, its binding can be studied using spectroscopic methods like fluorescence and electronic absorption spectroscopy (C. V. Kumar, E. H. Asuncion, J. Am. Chem. Soc. 1993, 115, 8547-8553). The binding interactions of lanthanide (III) porphyrin complexes with calf thymus DNA were investigated using UV-vis spectroscopy and depicted in FIGS. 9 and 10 (selected absorption curves were shown for clear plot). By monitoring wavelengths at 410 nm (complex 1) and 430 nm (complex 2b), successive additions of calf thymus DNA to the respective complexes in Tris buffer solution containing <5% DMSO were done until saturation. Moderate hyprochromicities of 27% and 23% in complexes 1 and 2b were found without significant bathochromic spectral shift. […] The values of binding constant K were calculated from a plot of D/Δεap versus D based on the following equation:
Where D is the concentration of DNA, Δεap=|ΔεA−ΔεB| wherein εA=Aobs/[complex], and Δε=|ΔεB−ΔεF|; εB and εF correspond to the extinction coefficients of DNA-bound lanthanide(III) porphyrin complex adduct and its free complex, respectively. By monitoring absorbance at 410 nm (complex 1) and 430 nm (complex 2b), plots of D/Δεap against D are inserted in FIGS. 9 and 10. Linear curves in two graphs were plotted with slopes of 4.63×10^−5 (complex 1) and 3.60×10^−5 (complex 2b) (both R=0.99).

Caspase 3 = assay: Western blotting analysis, caspase 3; format: cell-based, human; conditions: HeLa, 2 μM, 32 h
Experimental: Cells were washed in cold phosphate-buffered saline (PBS) at 4° C. and lysed in a buffer containing 0.05 M Tis.HCl (pH 7.5), 0.25 M NaCl, 0.005 M EDTA, 0.05 M NaF, 1 mM DTT and 1% Triton. Cell lysates were collected and the protein concentration of cell lysates was measured using a Protein detection kit (Bio-Rad). Equal amount of proteins was resolved in a 12% SDS-PAGE gel and transferred onto nitrocellulose membranes. The membrane was blocked with a blocking solution (1×TBS, 0.1% Tween-20 with 5% non-fat dry milk) at room temperature for 1 h, and washed three times with washing buffer (1×TBS, 0.1% Tween-20) for 5 min each. The membrane was then incubated with primary antibody (Caspase 3, Bid, PARP and β-Actin respectively) for overnight at 4° C. The membrane was washed three times with washing buffer for 5 min each before incubation with the corresponding secondary antibody (horse anti-mouse IgG or goat anti-rabbit IgG). Membrane was washed again and signals were detected using an ECL detection kit (Amersham Pharmacia Biotech) followed by the exposure to X-ray films (Fujifilm).
After treatment with complex 1 for different time intervals, the expressions of caspase 3, Bid and PARP were detected by the Western blotting analysis. […] Moreover, treatment with complex 1 leads to a reduction in the level of un-cleaved Bid.

HeLa cells [1] = assay: Transmission electron microscopy of autophagic cells; format: cell-based, human; conditions: 1 μM, 2 h
Experimental: Transmission Electron Microscopy. HeLa cells (12×10^4) were seeded on 60 mm plate. Cells were treated with 1 (1 μM) for 2 h, respectively. Cells were then trypsinized, washed twice with PBS and fixed with ice-cold glutaraldehyde (2.5% in 0.1 M cacodylate buffer, pH 7.4) for 30 min. After primary fixation, cells were washed with cacodylate buffer, post-fixed with 1% osmium tetraoxide for 30 min. Osmium tetraoxide was removed and the cell pellet was washed with cacodylate buffer. Pre-warmed gelatin was added to the cell pellet and immediately centrifuged at 2500 rpm for 5 min. The gelatin was dehydrated by immersing in 30% EtOH, 50% EtOH, 70% EtOH once, and in 90% EtOH twice for 5 min and finally in absolutely EtOH for 10 min for three times. The dehydrated sample was washed with propylene oxide twice for 5 min and then immersed in propylene oxide:resin (1:1) for overnight. The sample was immersed in pure resin for 30 min before embedded in Polybed. Specimens were examined using 208S Philips transmission electron microscopy.
Cells treated with 1 were subjected to transmission electron microscopic analysis.

HeLa cells [2] = assay: Effect of 3-MA on 1-induced cytotoxicity (MTT); format: cell-based, human; conditions: 3-MA 10 mM 1 h then 1 for 24 h, P<0.001
Experimental: HeLa cells were pre-treated with 3-MA (10 mM) for 1 h, and then with 1 for 24 h as indicated. Cell viability was measured using MTT assay *, P<0.001. Effect of 3-MA on 1-induced cytotoxicity. Cells were seeded on 96-well microtitre plates (8×10^3 cells per well). After overnight incubation, the cells were pre-incubated with 3-methyladenine (3-MA, 10 mM) for 1 hour and then in the presence of 1 (DMSO<1%) for 24 h. Cell viability was measured by MTT assay as described before.

## [Yb2(OEP)2](μ-OH)2 [Complex 1]
Calf thymus DNA; <5% DMSO, until saturation, 410 nm (1), 430 nm (2b)
  hyprochromicity on addition of calf thymus DNA: 27%
Calf thymus DNA; UV-vis absorption titration, 20° C.
  binding constant K with calf thymus DNA: (1.59±0.3)×10^6 mol^−1dm^3
Caspase 3
  expression of caspase 3: decrease dramatically
HeLa cells [1]
  autophagic vacuoles by transmission electron microscopy: vesicular structures reminiscence of autophagic vacuoles
HeLa cells [2]
  effect of 3-MA pretreatment on viability of 1-treated cells: significantly increases cell viability
